According to patent US6358885B1, “Substituted phenylheterocyclic herbicides” (Mississippi State University, priority 1992, dated 2002):

Assays:
[1] = system: sugar beet; assay: Test B preemergence/postemergence greenhouse plant response rating 0 to 10; type: in vivo, Beta vulgaris; details: 0 to 10 scale
Method in brief: (§1)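 Postemergence treatment of plants two to eighteen cm tall ran alongside preemergence treatment of planted seed, each using compound in a non-phytotoxic solvent.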

[2] = system: wild oat; assay: as above; type: in vivo, Avena fatua; details: 0 to 10 scale
Method in brief: as §1

[3] = system: wheat; assay: Test C preemergence/postemergence greenhouse plant response rating 0 to 100; type: in vivo, Triticum aestivum; details: POSTEMERGENCE; for Plant response rating, Wheat: 0 to 100 scale
Source text: (§2) The compounds evaluated in this test were formulated in a non-phytoxic solvent and applied to the soil surface before plant seedlings emerged (preemergence application), to water that covered the soil surface (flood application), and to plants that were in the one-to-four leaf stage (postemergence application). A sandy loam soil was used for the preemergence and postemergence tests, while a silt loam soil was used in the flood test. Water depth was approximately 2.5 cm for the flood test and was maintained at this level for the duration of the test. Plant species in the preemergence and postemergence tests consisted of barley (Hordeum vulgare), bedstraw (Galium aparine), blackgrass (Alopecurus myosuroides), chickweed (Stellaria media), corn (Zea mays), cotton (Gossypium hirsutum), crabgrass (Digitaria sanguinalis), downy brome (Bromus tectorum), giant foxtail (Setaria faberii), lambsquarters (Chenopodium album), morningglory (Ipomoea hederacea), pigweed ([…]), rape (Brassica napus), ryegrass (Lolium multiflorum), sorghum (Sorghum bicolor), soybean (Glycine max), speedwell (Veronica persica), sugar beet (Beta vulgaris), velvetleaf (Abutilon theophrasti), wheat (Triticum aestivum), wild buckwheat (Polygonum convolvulus), and wild oat (Avena fatua). All plant species were planted one day before application of the compound for the preemergence portion-of this test. Plantings of these species were adjusted to produce plants of appropriate size for the post-emergence portion of the test. […] All plant species were grown using normal greenhouse practices. Visual evaluations of injury expressed on treated plants, when compared to untreated controls, were recorded approximately fourteen to twenty one days after application of the test compound. […] A dash (-) response means no test result.

[4] = system: blackgrass; assay: as above; type: in vivo, Alopecurus myosuroides; details: POSTEMERGENCE; for Plant response rating, Blackgrass: 0 to 100 scale
Source text: as §2

[5] = system: barnyardgrass; assay: Test C flood test plant response rating 0 to 100; type: in vivo, Echinochloa crus-galli; details: for Plant response rating (0 to 100), Barnyardgrass: under POSTEMERGENCE head (flood test species); for Plant response rating, Barnyardgrass: flood test species listed under POSTEMERGENCE, 0 to 100 scale
Source text: as §2

[6] = system: pigweed; assay: Test C preemergence/postemergence greenhouse plant response rating 0 to 100; type: in vivo, Amaranthusretroflexus; details: POSTEMERGENCE; for Plant response rating Pigweed: 0 to 100 scale
Source text: as §2

[7] = system: cotton; assay: as above; type: in vivo, Gossypium hirsutum; details: POSTEMERGENCE; for Plant response rating, Cotton: 0 to 100 scale
Source text: as §2

[8] = system: morningglory; assay: Test B preemergence/postemergence greenhouse plant response rating 0 to 10; type: in vivo, Ipomoea hederacea; details: 0 to 10 scale
Method in brief: as §1

[9] = system: blackgrass; assay: as above; type: in vivo, Alopecurus myosuroides; details: 0 to 10 scale
Method in brief: as §1

[10] = system: cocklebur; assay: as above; type: in vivo, Xanthium pensylvanicum; details: 0 to 10 scale
Method in brief: as §1

[11] = system: bedstraw; assay: as above; type: in vivo, Galium aparine; details: 0 to 10 scale
Method in brief: as §1

[12] = system: ryegrass; assay: Test C preemergence/postemergence greenhouse plant response rating 0 to 100; type: in vivo, Lolium multiflorum; details: POSTEMERGENCE; for Plant response rating Ryegrass: 0 to 100 scale
Source text: as §2

## C#CC(C)Oc1cc(-c2nn3c(c2Cl)CCCC3)c(F)cc1Cl (stereo not shown) [Compound 36]
[1]; POSTEMERGENCE, Rate 50 g/ha
  Plant response rating, Sugar beet: 10
[1]; PREEMERGENCE, Rate 50 g/ha
  Plant response rating, Sugar beet: 9
[1]; Rate 200 g/ha, POSTEMERGENCE
  Plant response rating, Sugar beet: 10
[1]; Rate 200 g/ha, PREEMERGENCE
  Plant response rating, Sugar beet: 9
[2]; POSTEMERGENCE, Rate 50 g/ha
  Plant response rating, Wild oat: 5
[2]; PREEMERGENCE, Rate 50 g/ha
  Plant response rating, Wild oat: 3
[2]; Rate 200 g/ha, POSTEMERGENCE
  Plant response rating, Wild oat: 6
[3]; 62 g/ha
  Plant response rating, Wheat: 50
[3]; 125 g/ha
  Plant response rating, Wheat: 50
[3]; Rate 16 g/ha
  Plant response rating (0 to 100), Wheat: 20
[3]; Rate 31 g/ha
  Plant response rating (0 to 100), Wheat: 30
[4]; 62 g/ha
  Plant response rating, Blackgrass: 50
[4]; 125 g/ha
  Plant response rating, Blackgrass: 70
[4]; Rate 16 g/ha
  Plant response rating (0 to 100), Blackgrass: 30
[4]; Rate 31 g/ha
  Plant response rating (0 to 100), Blackgrass: 40
[5]; Rate 16 g/ha
  Plant response rating (0 to 100), Barnyardgrass: 100
[5]; Rate 31 g/ha
  Plant response rating (0 to 100), Barnyardgrass: 100
[5]; 62 g/ha
  Plant response rating, Barnyardgrass: 100
[5]; 125 g/ha
  Plant response rating, Barnyardgrass: 100
[6]; 62 g/ha
  Plant response rating Pigweed: 100
[6]; 125 g/ha
  Plant response rating Pigweed: 100
[6]; Rate 16 g/ha
  Plant response rating (0 to 100), Pigweed: 100
[6]; Rate 31 g/ha
  Plant response rating (0 to 100), Pigweed: 100
[7]; 62 g/ha
  Plant response rating, Cotton: 100
[7]; 125 g/ha
  Plant response rating, Cotton: 100
[7]; Rate 16 g/ha
  Plant response rating (0 to 100), Cotton: 100
[7]; Rate 31 g/ha
  Plant response rating (0 to 100), Cotton: 100
[8]; POSTEMERGENCE, Rate 50 g/ha
  Plant response rating, Morningglory: 8
[8]; PREEMERGENCE, Rate 50 g/ha
  Plant response rating, Morningglory: 0
[8]; Rate 200 g/ha, POSTEMERGENCE
  Plant response rating, Morningglory: 10
[8]; Rate 200 g/ha, PREEMERGENCE
  Plant response rating, Morningglory: 2
[9]; POSTEMERGENCE, Rate 50 g/ha
  Plant response rating, Blackgrass: 5
[9]; POSTEMERGENCE, Rate 200 g/ha
  Plant response rating, Blackgrass: 7
[9]; PREEMERGENCE, Rate 50 g/ha
  Plant response rating, Blackgrass: 4
[9]; Rate 200 g/ha, PREEMERGENCE
  Plant response rating, Blackgrass: 10
[10]; POSTEMERGENCE, Rate 50 g/ha
  Plant response rating, Cocklebur: 9
[10]; POSTEMERGENCE, Rate 200 g/ha
  Plant response rating, Cocklebur: 10
[10]; PREEMERGENCE, Rate 50 g/ha
  Plant response rating, Cocklebur: 0
[10]; Rate 200 g/ha, PREEMERGENCE
  Plant response rating, Cocklebur: 2
[11]; POSTEMERGENCE, Rate 50 g/ha
  Plant response rating, Bedstraw: 10
[11]; POSTEMERGENCE, Rate 200 g/ha
  Plant response rating, Bedstraw: 10
[11]; PREEMERGENCE, Rate 50 g/ha
  Plant response rating, Bedstraw: 10
[12]; 62 g/ha
  Plant response rating Ryegrass: 30
[12]; 125 g/ha
  Plant response rating Ryegrass: 50
[12]; Rate 16 g/ha
  Plant response rating (0 to 100), Ryegrass: 20
[12]; Rate 31 g/ha
  Plant response rating (0 to 100), Ryegrass: 30
